Results: patent US12636371B2, “Chemically coupled transporter for low-hydrophobicity bioactive drugs into the central nervous system” (Skybio LLC, priority 2021, dated 2026)
Values after ≈ are worked out from the molar mass of the structure shown. Where two headings read alike, the source gives them in different places.

Assays:
SH-SY5Y cells = assay: CellROX assay of intracellular reactive oxygen species induced by ASf; assay type: cell-based; settings: 10 μM compound alone, 24 h
Method: In order to characterize the antioxidant properties of D9, its protective action on the AS-induced production of reactive oxygen species (ROS) in a cellular model was assessed. For this, SH-SY5Y cells were treated with fibrils of AS (ASf) (AS incubated 120 h at 37° C. and 600 rpm), and the reactive oxygen species produced were examined using the CellROX® Orange Reagent (Invitrogen), which undergoes oxidation by ROS to form a stable fluorescent compound.
In addition, cells were also treated with doxycycline 10 μM+7 μM ASf (ASf+Doxy) as a positive control, and 10 μM doxycycline alone (Doxy). All conditions were incubated 24 h at 37° C. and 5% CO2. […] Fluorescent images of randomly chosen fields were acquired with identical acquisition parameters using a Zeiss Axio Vert.A1 inverted fluorescence microscope.

E. coli DH5α = assay: Antibiotic activity by disc diffusion assay (MIC); assay type: cell-based; settings: for MIC: Escherichia coli; for RATE MIC Compound/Doxycycline: ratio of MIC to doxycycline MIC
Method: In order to examine the antibiotic activity of the compounds synthesized in Example 1, an assay was performed using E. coli DH5α (Gram(−)), as a sensitive, indicator strain.
The antibacterial activities of test compounds were evaluated using the disc diffusion method (Kavanagh, F. Dilution methods of antibiotic assays in Analytical Microbiology. 1963; Pomares M F, Vincent P A, Farías R N, Salomón R A. Protective action of ppGpp in microcin J25-sensitive strains. J Bacteriol. 2008-190:4328-34). Briefly, filter-paper discs impregnated with 10 μl of two-fold serial dilutions of the test compounds, and were placed onto LB solid medium Petri dishes. Then, aliquots (50 μl) of an E. coli DH5α culture in stationary phase were mixed with 3 ml of top agar (0.7% agar) and overlaid onto the plates. After overnight incubation at 37° C., the plates were examined for different degrees of inhibition. Inhibition degrees produced by the test compound are expressed as Minimum Inhibitory Concentrations (MICs), defined as the lowest concentration of a compound that inhibit visible growth of bacteria. Each test was performed in duplicate vs. the reference compound Doxycycline.

D1 dopamine receptor = D1 dopamine receptor (Homo sapiens, UniProt P21728); assay: D1 receptor agonist assay, cAMP Nomad biosensor, HEK_cAMPNmd_FP650_D1 cells; settings: 24 h, 10 serial 1:3 dilutions from 30 μM, triplicate
Sequence of D1 dopamine receptor (P21728 whole entry): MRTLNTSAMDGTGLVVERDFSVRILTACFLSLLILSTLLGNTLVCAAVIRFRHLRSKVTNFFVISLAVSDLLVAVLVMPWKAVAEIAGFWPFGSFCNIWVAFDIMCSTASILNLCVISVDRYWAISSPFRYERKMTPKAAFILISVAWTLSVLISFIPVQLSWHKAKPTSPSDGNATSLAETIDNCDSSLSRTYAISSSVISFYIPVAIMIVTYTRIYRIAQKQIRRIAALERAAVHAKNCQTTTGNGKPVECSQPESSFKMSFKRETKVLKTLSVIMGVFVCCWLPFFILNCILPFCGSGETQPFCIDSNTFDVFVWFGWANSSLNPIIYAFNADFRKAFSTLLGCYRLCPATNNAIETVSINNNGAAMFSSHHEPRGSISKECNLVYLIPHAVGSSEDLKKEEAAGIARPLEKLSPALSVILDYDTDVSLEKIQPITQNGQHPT
Method: To detect Nomad biosensor activation, the assay medium was removed and replaced by 100 ml of DPBS with calcium and magnesium. […] In U2OS_cAMPNmd_FP650_D2 cells, images were acquired using the CellInsight CX7 HCS Platform, and the number of fluorescent vesicles per cell was quantified with the HCS Studio Cell Analysis Software.

D2 dopamine receptor = D2 dopamine receptor (Homo sapiens, UniProt P14416); assay: D2 receptor agonist assay, cAMP Nomad biosensor, U2OS_cAMPNmd_FP650_D2 cells; assay type: cell-based; settings: 24 h, 10 serial 1:3 dilutions from 30 μM, triplicate
Sequence of D2 dopamine receptor (P14416 whole entry): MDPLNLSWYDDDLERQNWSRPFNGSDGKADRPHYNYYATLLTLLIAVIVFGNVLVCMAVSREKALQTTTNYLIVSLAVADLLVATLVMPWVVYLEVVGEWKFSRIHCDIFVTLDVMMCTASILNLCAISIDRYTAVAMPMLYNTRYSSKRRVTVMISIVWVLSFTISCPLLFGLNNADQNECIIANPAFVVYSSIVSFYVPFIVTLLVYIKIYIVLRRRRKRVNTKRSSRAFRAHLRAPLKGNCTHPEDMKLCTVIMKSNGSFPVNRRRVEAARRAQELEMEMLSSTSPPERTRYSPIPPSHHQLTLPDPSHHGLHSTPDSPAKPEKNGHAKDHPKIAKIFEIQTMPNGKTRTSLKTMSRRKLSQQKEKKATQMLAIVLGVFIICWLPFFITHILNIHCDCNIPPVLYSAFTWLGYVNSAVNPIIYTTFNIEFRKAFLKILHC
Method: HEK_cAMPNmd_FP650_D1 and U2OS_cAMPNmd_FP650_D2 cells were seeded at a density of 30.000 and 20.000 cells/well, respectively, in 96-well plates. Cells were maintained in DMEM or DMEM-F12 medium supplemented with 10% FBS during 24 h at 37° C. in a humidified 5% CO2 atmosphere.
Cells were then incubated for 24 h.
To detect Nomad biosensor activation, the assay medium was removed and replaced by […] of DPBS with calcium and magnesium. […] In U2OS_cAMPNmd_FP650_D2 cells, images were acquired using the CellInsight CX7 HCS Platform, and the number of fluorescent vesicles per cell was quantified with the HCS Studio Cell Analysis Software.
The effect of the compounds in the regulation of D1 or D2 receptors' activation was analyzed measuring the CAMP signaling using the Nomad biosensor-based assay.
This same experiment was carried out in the U2OS_cAMPNmd_FP650_D2 cell line (FIG. 10). The effect of the compounds was analyzed quantifying the number of fluorescent vesicles in the cytoplasm of the cells using the HCS Studio Cell Analysis Software.

[1] = disc diffusion, two-fold serial dilutions from 2 mg/ml, LB solid medium, overnight 37° C., read-out: MIC

Row | MIC (E. coli DH5α; [1]) | RATE MIC Compound/Doxycycline (E. coli DH5α) | SMILES | Intracellular ROS induced by compound alone (SH-SY5Y cells) | EC50, D1 receptor activation (D1 dopamine receptor) | EC50, D2 receptor activation (D2 dopamine receptor) | MIC (E. coli DH5α)
1 | 31.2 µg/mL (≈ 70.3 µM) | – | C[C@H]1c2cccc(O)c2C(=O)C2=C(O)[C@]3(O)C(=O)C(C(N)=O)=C(O)[C@@H](N(C)C)[C@@H]3[C@@H](O)[C@@H]21 [Doxycycline, reference compound] | neither the presence of D9 nor doxycycline induced intracellular ROS | – | – | –
2 | 1000 µg/mL (≈ 2240 µM) | 32 | C[C@H]1c2ccc([N+](=O)[O-])c(O)c2C(=O)C2=C(O)[C@]3(O)C(=O)C(C(N)=O)=C(O)CC3[C@@H](O)C21 (some centres unmarked) [Compound D4, 4-dedimethylamino-9-nitro doxycycline] | – | – | – | –
3 | 250 µg/mL (≈ 600 µM) | 8 | C[C@H]1c2ccc(N)c(O)c2C(=O)C2=C(O)[C@]3(O)C(=O)C(C(N)=O)=C(O)CC3[C@@H](O)C21 (some centres unmarked) [Compound D5, 9-amino-4-dedimethylamino doxycycline] | – | did not act as an agonist of the D1 receptor | did not act as an agonist of the D2 receptor | –
4 | 31.2 µg/mL (≈ 70.3 µM) | 1 | C[C@H]1c2cccc(O)c2C(=O)C2=C(O)[C@]3(O)C(=O)C(C(N)=O)=C(O)C(N(C)C)C3[C@@H](O)C21 (some centres unmarked) [Compound D1, Doxycycline Free Form, reference compound] | – | – | – | –

Row | SMILES | MIC (E. coli DH5α; [1]) | RATE MIC Compound/Doxycycline (E. coli DH5α) | Intracellular ROS induced by compound alone (SH-SY5Y cells) | EC50, D1 receptor activation (D1 dopamine receptor) | EC50, D2 receptor activation (D2 dopamine receptor) | MIC (E. coli DH5α)
5 | C[C@H]1c2ccc(NC(=O)CCl)c(O)c2C(=O)C2=C(O)[C@]3(O)C(=O)C(C(N)=O)=C(O)CC3[C@@H](O)C21 (some centres unmarked) [Compound D6, 9-(2-chloroacetamido)-4-dedimethylamino doxycycline] | – | 64 | – | – | – | 2000 µg/mL (≈ 4060 µM)
6 | C[C@H]1c2cccc(O)c2C(=O)C2=C(O)[C@]3(O)C(=O)C(C(N)=O)=C(O)CC3[C@@H](O)C21 (some centres unmarked) [Compound D3, 4-dedimethylaminodoxycycline] | – | 16 | – | – | – | 500 µg/mL (≈ 1250 µM)
